# Results as given in article PMC6716272, “In Vivo and In Vitro Analyses of Novel Peptidomimetic Disruptors for the Serotonin 5-HT2C Receptor Interaction With Phosphatase and Tensin Homolog” (Frontiers in Pharmacology, 2019).
# Assays:
# [1] = test system: cocaine–saline-trained rats; assay: Two-lever drug discrimination, cocaine (5 mg/kg) vs saline; assay type: in vivo, rat
# Experimental: (§1) Experimentally naïve male Sprague-Dawley rats (n = 43; Envigo, Inc.) weighing 300–325 g at the beginning of the experiment were housed two per cage in a temperature- (21–23°C) and humidity- (45–50%) controlled environment; lighting was maintained under a 12-h light–dark cycle (0700–1900 h). Rats were maintained at 80–90% of their free-feeding weights by restricting access to water. Rats received water during daily training sessions (5–6 ml/rat/session), in the afternoon several hours after training (20 min), and over the weekend (36 h). Experiments were conducted during the light phase of the light–dark cycle (between 0900 and 1200 h) and were carried out in accordance with the National Institutes of Health Guide for the Care and Use of Laboratory Animals and with the approval of the Institutional Animal Care and Use Committee at University of Texas Medical Branch.
# (§2) The procedures were conducted in commercially available two-lever operant chambers (Med Associates, St. Albans, VT). Each chamber was equipped with a water-filled dispenser mounted equidistantly between two retractable response levers on the wall and housed in a light- and soundproof cubicle. Illumination came from a 28-V house light; ventilation and masking noise were provided by a ventilation fan in the right-side wall. A computer with Med-PC IV software was used to run programs and record all experimental events.
# (§3) Standard two-lever, water-reinforced drug discrimination procedures were used ([Appel and Cunningham, 1986]; [Callahan and Cunningham, 1995]; [Colpaert, 1999]). Three cohorts (n = 13–16/cohort) were trained to discriminate an injection of a training drug from saline (1.0 ml/kg, i.p.) administered 15 min before start of daily (Monday–Friday) training sessions. In one cohort (n = 14), rats were trained to discriminate the training drug lorcaserin (0.75 mg/kg, 1.0 ml/kg, i.p.) from saline. In a second cohort (n = 13), rats were trained to discriminate the training drug WAY163909 (0.75 mg/kg, 1.0 ml/kg, i.p.) from saline. In the third cohort, rats (n = 16) were trained to discriminate the training drug cocaine (5 mg/kg, 1.0 ml/kg, i.p.) from saline. Two rats in the lorcaserin–saline cohort were excluded from the present study due to failure to maintain the discrimination. Rats in the WAY163909–saline cohort also participated in additional studies ([Wild et al., 2018]); the WAY163909 dose–response curve was reevaluated between studies; a washout period was allowed, and no carryover effects were observed.
# (§4) During this phase, only the stimulus-appropriate (drug or saline) lever was present. Training began under a fixed ratio 1 (FR 1) schedule of water reinforcement, and the FR requirement was incremented until all animals were responding reliably under an FR 20 schedule for each experimental condition. For half of the rats, left lever responses were reinforced after training drug administration, whereas right lever responses were reinforced after saline administration; conditions were reversed for the remaining animals. During this phase of training, drug and saline were administered irregularly with the restriction that neither condition prevailed for more than three consecutive sessions.
# (§5) After responding stabilized, both levers were presented simultaneously during 15-min training sessions. The rats were required to respond on the stimulus-appropriate (correct) lever to obtain water reinforcement. There were no programmed consequences for responding on the incorrect lever. This phase of training continued until the performance of all rats attained criterion (defined as mean accuracies of at least 80% stimulus-appropriate responding for 10 consecutive sessions).
# (§6) Test sessions were initiated and conducted once or twice per week following attainment of criterion. Training sessions were run during the intervening days to maintain discrimination accuracy. […]
# [2] = test system: WAY163909–saline-trained rats; assay: Two-lever drug discrimination, WAY163909 (0.75 mg/kg) vs saline; assay type: in vivo, rat
# Experimental: as §1, §2, §3, §4, §5, §6
# [3] = test system: lorcaserin–saline-trained rats; assay: Two-lever drug discrimination, lorcaserin (0.75 mg/kg) vs saline; assay type: in vivo, rat
# Experimental: as §1, §2, §3, §4, §5, §6
# [4] = effect mimicked by Ro-600175 and reversed by SB242084; ref Ji et al., 2006; cited from earlier work
# From the text: (§7) Agonist binding to the 5-HT2CR results in dynamic changes in receptor conformation and induction of a variety of intracellular signaling pathways ([Berg et al., 1994]; [McGrew et al., 2002]; [Werry et al., 2005]; [Labasque et al., 2008]). Best characterized is coupling of the 5-HT2CR to Gαq/11 proteins to activate phospholipase Cβ (PLCβ), resulting in increased intracellular calcium (Cai ^2+) release, among various other signaling outcomes ([Millan et al., 2008]). One approach to selectively target the 5-HT2CR signaling is through protein–protein interactions that are selective for 5-HT2CR ove ...
# rats = details: TAT-r3L4F 0.1 µmol/kg; ref Cunningham et al., 2011; Anastasio et al., 2013; cited from earlier work
# From the text: as §7
substance,measurement,setting,value
"Ac-YGRKKRRPNPDQKPRRKKKEKR-NH2 [TAT-r3L4F, rat 5-HT2CR third-loop peptide r3L4F conjugated to TAT at the N terminus]","stimulus effects of cocaine (2.5 mg/kg) and response rate, TAT-r3L4F in the absence of lorcaserin","[1]; TAT-r3L4F 1, 2 µmol/kg i.p. 45 min before test",did not alter the stimulus effects of cocaine or the associated response rate
same,"cocaine-appropriate responding, TAT-r3L4F plus lorcaserin (0.5 mg/kg) before cocaine (2.5 mg/kg)","[1]; TAT-r3L4F 1, 2 µmol/kg, p < 0.05 vs cocaine alone, not statistically different from lorcaserin alone plus cocaine",significantly reduced cocaine-appropriate responding
same,lever responding in substitution test (low-dose series),"[1]; TAT-r3L4F alone 1, 2 µmol/kg, lorcaserin alone 0.5 mg/kg, data not shown",saline-appropriate responding
same,response rates associated with cocaine (2.5 mg/kg),"[1]; lorcaserin alone 0.5 mg/kg, or TAT-r3L4F 1, 2 µmol/kg plus lorcaserin 0.5 mg/kg, p < 0.05",significantly suppressed the response rates
same,response rate in substitution test (low-dose series),"[1]; vs previous cocaine maintenance session, TAT-r3L4F alone 1, 2 µmol/kg, lorcaserin alone 0.5 mg/kg, data not shown",significant reduction in response rates
same,response rate in combination with WAY163909 (0.5 mg/kg),"[2]; combination test, TAT-r3L4F 1, 2 µmol/kg i.p.",no change in response rates
same,drug-lever responding in combination with WAY163909 (0.5 mg/kg),"[2]; combination test, TAT-r3L4F 1, 2 µmol/kg i.p., p < 0.05",enhanced drug-lever responding
same,response rate in substitution test,"[2]; lorcaserin 1 mg/kg (vs saline), TAT-r3L4F 1, 2 µmol/kg (vs previous WAY163909 maintenance session)",significantly higher
same,drug-like responding,"[2]; substitution test, TAT-r3L4F 1, 2 µmol/kg i.p.",< 10%
same,drug-lever responding in combination with lorcaserin (0.5 mg/kg),"[3]; combination test, i.p., TAT-r3L4F 2 µmol/kg (p < 0.05), peptide 7 2, 5 µmol/kg",enhanced drug-lever responding
same,response rate in combination with lorcaserin (0.5 mg/kg),"[3]; combination test, i.p., TAT-r3L4F 2 µmol/kg, peptide 7 2, 5 µmol/kg",no change in response rates
same,drug-like responding,"[3]; substitution test, i.p., TAT-r3L4F 1, 2 µmol/kg, peptide 7 1, 2, 5 µmol/kg (data not shown)",< 10%
same,response rate in substitution test,"[3]; vs previous lorcaserin maintenance session, WAY163909 0.75 mg/kg, TAT-r3L4F 2 µmol/kg (trend for 1 µmol/kg)",significantly higher
same,∆9-tetrahydrocannabinol-induced conditioned place preference,[4],blocks
same,efficacy of a subeffective dose of WAY163909 to suppress motor activity and impulsive action,rats,enhances the efficacy
same,"motor activity, peptide alone",rats,does not suppress motor activity on its own
